Measurements from PubChem BioAssay (NCI).
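Protocol summary: plate cells (96-well), add compound at 5 concentrations, incubate 48 h, interpolate endpoints linearly. TGI is the concentration that stops growth completely.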

Columns and labels:
Test in all cases: DTP human tumour cell line panel, 48 h
NCI-H522 lung = test system: NCI-H522 lung
A498 renal = test system: A498 renal
SK-MEL-5 melanoma = test system: SK-MEL-5 melanoma
HT29 colon = test system: HT29 colon
EKVX NSCLC = test system: EKVX NSCLC
K-562 leukemia = test system: K-562 leukemia
OVCAR-3 ovarian = test system: OVCAR-3 ovarian
SF-295 CNS = test system: SF-295 CNS
RPMI-8226 leukemia = test system: RPMI-8226 leukemia
HS 578T breast = test system: HS 578T breast

SMILES | TGI (NCI-H522 lung) [µM] | TGI (A498 renal) [µM] | TGI (SK-MEL-5 melanoma) [µM] | TGI (HT29 colon) [µM] | TGI (EKVX NSCLC) [µM] | TGI (K-562 leukemia) [µM] | TGI (OVCAR-3 ovarian) [µM] | TGI (SF-295 CNS) [µM] | TGI (RPMI-8226 leukemia) [µM] | TGI (HS 578T breast) [µM]
COc1cccc(NC(=O)CC(=O)NN)c1 | > 100 | > 100 | > 100 | > 100 | > 100 | > 100 | > 100 | > 100 | > 100 | > 100
C/C(=C\C(=O)Nc1ccc2n[nH]nc2c1)Nc1ccc2n[nH]nc2c1 | > 100 | > 100 | > 100 | > 100 | > 100 | > 100 | > 100 | > 100 | > 100 | –
CC1=NN(c2nc(N)nc(CO)n2)C(C)(C)C1 | > 100 | > 100 | > 100 | > 100 | > 100 | > 100 | > 100 | > 100 | > 100 | > 100
CCOC(=O)C(O)(CC1=NC(C(=O)OC)(C(=O)OC)C(c2cccc(C=O)c2)O1)C(=O)OCC (centres undefined) | – | > 100 | > 100 | > 100 | > 100 | > 100 | > 100 | – | > 100 | –
CCOC(=O)Cc1c(C(=O)OCC)[n+](=O)c2cc(Cl)c(Cl)cc2n1[O-] | 3.63 | 6.14 | 3.04 | 5.2 | 11.4 | 5.65 | 5.04 | 13.5 | 2.18 | 6.46
Cc1ccc(C2=CC(=O)/C(=C\C(=O)c3ccc(Br)cc3)O2)c(C)c1 | 3.38 | 39.4 | 41.5 | 17.6 | > 67.7 | 16.4 | 16.1 | > 54.2 | 10 | 61.8
CCOC(=O)C(C)c1nc2cc(F)c(F)cc2[nH]c1=O (centres undefined) | – | – | > 100 | > 100 | > 100 | > 100 | > 100 | > 100 | > 100 | > 100
Cc1ccc(C(=O)N/N=C(\N=Nc2ccc([N+](=O)[O-])cc2)c2ccc(N(CCC#N)CCC#N)cc2C)cc1 | – | > 100 | > 100 | > 100 | > 100 | > 100 | > 100 | > 100 | > 100 | > 100
C[N+]1(C)CCCC(C#N)(c2ccccc2)CC1 (centres undefined) | – | > 100 | > 100 | > 100 | > 100 | > 100 | – | > 100 | > 100 | > 100
Cc1c2cc[n+](Cc3ccc(I)cc3)cc2c(C)c2c1[nH]c1ccccc12 | 5.59 | > 25 | 1.33 | > 25 | 7.85 | 10.7 | 3.72 | > 9.98 | 2.4 | –
Cc1ccc(/C=c2\cc3oc(=O)c4cccc(c4-3)c2=O)cc1 | > 100 | > 100 | – | > 100 | > 100 | > 100 | > 100 | > 100 | > 100 | –
Cc1ccc(S(=O)(=O)N/N=C2\C=CC3(CC2)C(=O)N(I)c2ccccc23)cc1 (centres undefined) | – | > 100 | > 100 | > 100 | > 100 | > 100 | > 100 | > 100 | > 100 | –
CN(C)C(=O)C(F)(F)C(c1ccccc1)C1C(=O)N(C)C(=O)N(C)C1=O (centres undefined) | – | > 100 | > 100 | – | > 100 | > 100 | > 100 | > 100 | > 100 | –
O/N=C\c1c2c(cc3c1CCC3)CCC2 | > 100 | > 100 | > 100 | > 100 | > 100 | > 100 | > 100 | > 100 | > 100 | > 100
O=C(NNC(=O)c1ccco1)c1ccco1 | > 100 | > 100 | > 100 | > 100 | > 100 | > 100 | > 100 | > 100 | > 100 | > 100
CSc1cc(Cl)c(C)cc1S(=O)(=O)NC(=O)NNc1ccc(C)cc1 | > 100 | > 100 | > 100 | > 100 | > 100 | > 100 | > 100 | > 100 | – | > 100
ClC1=NSSC1(Cl)Cl | 38.8 | > 100 | 28.8 | > 100 | > 100 | 24 | 64.5 | > 100 | 56 | –
Nc1cccc(-c2cc(=O)c3cc4c(cc3[nH]2)OCO4)c1 | 0.881 | > 100 | – | 4.25 | > 100 | > 100 | – | > 26.4 | > 100 | 6.56
C[C@]12CC[C@H]3[C@@H](CC=C4C[C@@H](O)CC[C@@]43C)[C@@H]1C/C(=C\c1cccnc1)[C@@H]2O | 42.5 | 42.9 | – | > 100 | 35.8 | – | – | 17.2 | > 100 | 33.3
COC(=O)c1ccccc1CC1Cc2c(C)ccc(C)c2C1=O (centres undefined) | 58.1 | 71 | 34 | 61.6 | > 100 | > 100 | > 100 | > 100 | – | > 100
COc1ccc(OC)c2c(C(C)=O)cccc12 | > 100 | > 100 | > 100 | – | > 100 | > 100 | > 100 | > 100 | > 100 | > 100
Oc1c(Br)cc2c(c1Br)-c1c(c(O)c3c4c1=NCCC=4C=N3)NCC2 | 5.52 | 45.7 | 23.2 | 20.8 | 46.1 | 40.9 | 8.47 | 19.5 | 29.8 | –
CNC(=S)N/N=C/C(C)=N/NC(=S)NC | > 100 | > 100 | > 100 | – | > 100 | – | > 100 | > 100 | > 100 | –
CSc1c(C(C)=O)c(O)n(-c2ccc(C)cc2)c(=O)c1C#N | > 100 | > 100 | > 100 | > 100 | > 100 | > 100 | > 100 | – | > 100 | > 100
